Results on one compound are retold here after PMC6164663, “Flavonoids as Putative Epi-Modulators: Insight into Their Binding Mode with BRD4 Bromodomains Using Molecular Docking and Dynamics” (Biomolecules, 2018).

In this test the target is T1, BRD4 (Homo sapiens, UniProt O60885).
T1 construct: tandem (BD1 + BD2)
In words: AlphaScreen binding assay with H4 peptide ([…]) K5/[…] Ac, duplicate dose-response (IC50 […]). The settings on record: read-out: DATA 2.

As to `O=c1cc(-c2ccc(O)c(-c3c(O)cc(O)c4c(=O)cc(-c5ccc(O)cc5)oc34)c2)oc2cc(O)cc(O)c12` [amentoflavone], the IC50 was found to be 30.4 µM.
